Source: US10716769B2 (GUANGZHOU JTREAT BIOSCI. LTD., priority 2015, dated 2020)
Converted amounts (≈) assume the structure as drawn.

Assays:
Vero cells = experiment: Half toxic concentration in the anti-herpes screening; format: cell-based, African green monkey
Description: Vero cells (kidney cells of African green monkey) are used as viral hosts to test the inhibition degree of the samples to cytopathic effects of the Vero cell caused by herpes virus type I and type II. 2. Sample treatment: the sample is dissolved in DMSO at an appropriate concentration before use, and diluted with the culture medium 3 times at a total of 8 dilutions for test. 4.

[1] = system: human cervical cancer cell line (HeLa); experiment: MTT in vitro tumor cell inhibition; format: cell-based; conditions: 3 days
Description: (§1) An effective amount of the above compounds and/or the compositions containing the same used as an active ingredient have an effect on inhibiting the tumor cells. The present invention detects the inhibitory effect of the hydroxy-substituted benzophenone compounds on the proliferation of the in vitro cultured human tumor cells by the methylthiazolyl tetrazolium method.
(§2) The method is used to detect cell viability. […] Particles can be dissolved by dimethyl sulfoxide (DMSO) isopropyl alcohol or 10% acidified SDS (sodium dodecyl sulfate), and a microplate reader is used to measure the OD value at A570 wavelength, which indirectly reflects the number of live cells. The method is used for detection of the cytokines bioactivity, as well as anti-tumor drugs and tumor radiosensitivity and cytotoxicity test, and has the characteristics of being simple, fast, economical, sensitive and accurate and having good reproducibility and no need to use radionuclides. This method has been widely used in screening preclinical anticancer drugs and detecting the drug sensitivity of fresh tumor cells. The method is as below:
(§3) (1) The tumor cell suspension prepared by 0.25% of trypsin digestion and adjusted to a cell concentration of 10^5/ml with RPMI1640 containing 10% fetal calf serum is added to a 96-well plate with 100 μl for each well, cultured 24 hours, and then different dosages of drugs are added with 100 μl/well, for which, the negative control groups, positive control groups and withering wells are set, and 4 parallel wells are set for each group.
(§4) (2) They are continually cultured in incubator containing 5% of CO2 at 37° C. for 24 to 48 hours. MTT solution (5 g/L) is added to each well before the termination of the experiment. The OD value at A570 nm is detected by microplate reader. The OD value at A570 of the negative group without the addition of drugs is taken as a control. The cell survival rate and cell inhibition rate of drugs are calculated according to the following formula: Cell survival rate=(OD value of test group/OD value of control group)×100% Cell inhibition rate (%)=(OD value of the control group−OD value of the test group/(OD value of the control group−OD value of the blank group)
(§5) 1. Tumor cell lines: human glioma cell line (U251), human colon cancer cell line (LOVO), human hepatoma cell line (HepG2), human lung cancer cell line (PC84045), human endometrial carcinoma cell line (JEC), human renal carcinoma (GRC), human gastric cancer cell line (MCG804), human cervical cancer cell line (HeLa), human hepatocellular carcinoma cell line (BEL-7402) and human umbilical vein endothelial cell line (ECV304) purchased from Animal Experimental Center of Zhongshan Medical College, and preserved by the present laboratory.
(§6) The tumor cell lines are cultured in RPMI-1640 medium containing 15% of the newborn bovine serum in a conventional manner, placed in the humidification incubator containing 5% of CO2 for being cultured at 37° C., and are observed for growth by an inverted microscope. A subculture is conducted every about 3-5 days, the cells in logarithmic growth phase are adopted to be digested with 0.25% of trypsin, and the serum-free RPMI-1640 medium is used for culturing the cell suspension; the blood counting plate makes counting, the trypan blue exclusion tests the cell activity, and the cell viability>95% is used for formal tests.
(§7) Liquid preparation: the compounds are labeled with the codes respectively, DMSO is used to dissolve each compound, the bacterial filter is used to remove bacteria, and each compound is prepared into 10^−4 g/ml, 10^−5 g/ml, 10^−6 g/ml and preserved at 4° C. for use. […]

[2] = system: human colon cancer cell line (LOVO); experiment: MTT in vitro tumor cell inhibition; format: cell-based; conditions: 3 days
Description: as §1, §2, §3, §4, §5, §6, §7

[3] = system: human endometrial carcinoma cell line (JEC); experiment: MTT in vitro tumor cell inhibition; format: cell-based; conditions: 3 days
Description: as §1, §2, §3, §4, §5, §6, §7

[4] = system: human gastric cancer cell line (MCG804); experiment: MTT in vitro tumor cell inhibition; format: cell-based; conditions: 3 days
Description: as §1, §2, §3, §4, §5, §6, §7

[5] = system: human glioma cell line (U251); experiment: MTT in vitro tumor cell inhibition; format: cell-based; conditions: 3 days; for Inhibitory rate, sensitivity class: U251, 10^−6 g/ml
Description: as §1, §2, §3, §4, §5, §6, §7

[6] = system: human hepatoma cell line (HepG2); experiment: MTT in vitro tumor cell inhibition; format: cell-based; conditions: 3 days
Description: as §1, §2, §3, §4, §5, §6, §7

[7] = system: human lung cancer cell line (PC84045); experiment: MTT in vitro tumor cell inhibition; format: cell-based; conditions: 3 days
Description: as §1, §2, §3, §4, §5, §6, §7

[8] = system: human umbilical vein endothelial cell line (ECV304); experiment: MTT in vitro cell inhibition; format: cell-based; conditions: 3 days
Description: as §1, §2, §3, §4, §5, §6, §7

HSV-I, VR733 strain = experiment: Inhibition of cytopathic effects of Vero cells caused by herpes virus type I; format: cell-based; conditions: Human alphaherpesvirus 1; Vero cells, CPE 48 hours, Reed-Muench; read-out: IC50 Against HSV-1
Description: Vero cells (kidney cells of African green monkey) are used as viral hosts to test the inhibition degree of the samples to the cytopathic effects of Vero cells caused by herpes virus type I and type II.
Vero cells (kidney cells of African green monkey) are used as viral hosts to test the inhibition degree of the samples to cytopathic effects of the Vero cell caused by herpes virus type I and type II.
1. Virus strains: HSV-I, VR733 strain, and HSV-II, SAV strain, which both are provided by ATCC.
2. Sample treatment: the sample is dissolved in DMSO at an appropriate concentration before use, and diluted with the culture medium 3 times at a total of 8 dilutions for test.
3. Positive control drug: acyclovir (ACV) produced by the Hubei Ke Yi pharmaceutical factory.

Compound | TC50 half toxic concentration (Vero cells) | Inhibitory rate % ([1]; 10^−4 g/ml) | Inhibitory rate, sensitivity class ([1]; 10^−5 g/ml) | Inhibitory rate, sensitivity class ([1]; 10^−6 g/ml) | Inhibitory rate % ([2]; 10^−4 g/ml) | Inhibitory rate, sensitivity class ([2]; 10^−5 g/ml) | Inhibitory rate, sensitivity class ([2]; 10^−6 g/ml) | Inhibitory rate % ([3]; 10^−4 g/ml) | Inhibitory rate % ([3]; 10^−5 g/ml) | Inhibitory rate, sensitivity class ([3]; 10^−6 g/ml) | Inhibitory rate % ([4]; MCG804, 10^−4 g/ml) | Inhibitory rate % ([4]; MCG804, 10^−5 g/ml) | Inhibitory rate, sensitivity class ([4]; MCG804, 10^−6 g/ml) | Inhibitory rate % ([5]; U251, 10^−4 g/ml) | Inhibitory rate % ([5]; U251, 10^−5 g/ml) | Inhibitory rate, sensitivity class [5] | Inhibitory rate % ([6]; HepG2, 10^−4 g/ml) | Inhibitory rate, sensitivity class ([6]; HepG2, 10^−6 g/ml) | Inhibitory rate % ([7]; PC84045, 10^−4 g/ml) | Inhibitory rate % ([8]; ECV304, 10^−4 g/ml) | further results
O=C(c1cc(O)c(O)cc1O)c1ccc(O)c(O)c1O | 86.23 µg/mL (≈ 310 µM) | 60.92% | insensitive (<30% means insensitive) | insensitive (<30% means insensitive) | 51.19% | insensitive (<30% means insensitive) | insensitive (<30% means insensitive) | 83.16% | 42.57% | insensitive (<30% means insensitive) | 83.48% | 72.89% | insensitive (<30% means insensitive) | 68.82% | 31.35% | insensitive (<30% means insensitive) | 85.12% | insensitive (<30% means insensitive) | 82.49% | 72.41% | Inhibitory rate % ([6]; HepG2, 10^−5 g/ml): 51.57%; Inhibitory rate % ([7]; PC84045, 10^−5 g/ml): 70.97%; Inhibitory rate % ([7]; PC84045, 10^−6 g/ml): 49.70%; Inhibitory rate % ([8]; ECV304, 10^−5 g/ml): 53.62%; Inhibitory rate % ([8]; ECV304, 10^−6 g/ml): 30.75%
O=C(c1ccc(O)c(O)c1O)c1ccc(O)c(O)c1O [2,3,4,2′,3′,4′-hexahydroxybenzophenone] | 12.35 µg/mL (≈ 44.4 µM) | 61.12% | insensitive (<30% means insensitive) | insensitive (<30% means insensitive) | – | insensitive (<30% means insensitive) | insensitive (<30% means insensitive) | 85.63% | 42.79% | insensitive (<30% means insensitive) | 80.93% | 30.12% | insensitive (<30% means insensitive) | 83.26% | 30.87% | insensitive (<30% means insensitive) | 86.15% | insensitive (<30% means insensitive) | 84.60% | 79.37% | IC50 (HSV-I, VR733 strain): 28.7 µg/mL (≈ 103 µM); Inhibitory rate, sensitivity class ([2]; 10^−4 g/ml): insensitive (<30% means insensitive); Inhibitory rate % ([6]; HepG2, 10^−5 g/ml): 75.54%; Inhibitory rate % ([7]; PC84045, 10^−5 g/ml): 72.34%; Inhibitory rate, sensitivity class ([7]; PC84045, 10^−6 g/ml): insensitive (<30% means insensitive); Inhibitory rate, sensitivity class ([8]; ECV304, 10^−5 g/ml): insensitive (<30% means insensitive); Inhibitory rate, sensitivity class ([8]; ECV304, 10^−6 g/ml): insensitive (<30% means insensitive)
O=C(c1ccccc1)c1ccc(O)c(O)c1O [2,3,4-trihydroxybenzophenone] | 53.42 µg/mL (≈ 232 µM) | 89.81% | – | insensitive (<30% means insensitive) | 90.02% | – | insensitive (<30% means insensitive) | 86.79% | 40.97% | insensitive (<30% means insensitive) | 87.14% | 62.75% | insensitive (<30% means insensitive) | 85.42% | 43.57% | insensitive (<30% means insensitive) | 93.40% | insensitive (<30% means insensitive) | 85.75% | 89.63% | IC50 (HSV-I, VR733 strain): 28.7 µg/mL (≈ 125 µM); Inhibitory rate % ([1]; 10^−5 g/ml): 34.53%; Inhibitory rate % ([2]; 10^−5 g/ml): 46.78%; Inhibitory rate % ([6]; HepG2, 10^−5 g/ml): 58.05%; Inhibitory rate % ([7]; PC84045, 10^−5 g/ml): 32.79%; Inhibitory rate, sensitivity class ([7]; PC84045, 10^−6 g/ml): insensitive (<30% means insensitive); Inhibitory rate % ([8]; ECV304, 10^−5 g/ml): 45.81%; Inhibitory rate, sensitivity class ([8]; ECV304, 10^−6 g/ml): insensitive (<30% means insensitive)
O=C(c1ccc(O)cc1O)c1ccc(O)cc1O [2,4,2′,4′-tetrahydroxybenzophenone] | 111.11 µg/mL (≈ 451 µM) | 31.05% | insensitive (<30% means insensitive) | insensitive (<30% means insensitive) | 53.29% | insensitive (<30% means insensitive) | insensitive (<30% means insensitive) | 46.70% | – | insensitive (<30% means insensitive) | 38.95% | – | insensitive (<30% means insensitive) | – | – | – | 74.85% | insensitive (<30% means insensitive) | 53.40% | 42.13% | IC50 (HSV-I, VR733 strain): 28.7 µg/mL (≈ 117 µM); Inhibitory rate, sensitivity class ([3]; 10^−5 g/ml): insensitive (<30% means insensitive); Inhibitory rate, sensitivity class ([4]; MCG804, 10^−5 g/ml): insensitive (<30% means insensitive); Inhibitory rate, sensitivity class ([6]; HepG2, 10^−5 g/ml): insensitive (<30% means insensitive); Inhibitory rate, sensitivity class ([7]; PC84045, 10^−5 g/ml): insensitive (<30% means insensitive); Inhibitory rate, sensitivity class ([7]; PC84045, 10^−6 g/ml): insensitive (<30% means insensitive); Inhibitory rate, sensitivity class ([8]; ECV304, 10^−5 g/ml): insensitive (<30% means insensitive); Inhibitory rate, sensitivity class ([8]; ECV304, 10^−6 g/ml): insensitive (<30% means insensitive)
